The record followed here is patent US20260315451A1, “MEDICINE FOR TREATING CANCER” (SCIENCE TECHNOLOGY INTERACT CO., LTD., priority 2022, published 2026).

The structures appear in SMILES notation.

Holding throughout (format): cell-based, human
One experiment has as its system HeLa cells. Briefly: Cell viability of HeLa cells with siRNA of control, BRCA1 or RAD51 (drug sensitivity test, Presto Blue; Example 1). As to conditions: siRNA of BRCA1 or RAD51, drug added 24 h later, 96 h culture, FIG. 1B/1C. Here is the method: HeLa cells (human cervical cancer cell line) were purchased from ATCC (Manassas, VA, USA). HeLa cells were cultured in DMEM medium (Nissui Pharmaceutical Co., Ltd., Tokyo, Japan) supplemented with 8% Fetal Bovine Serum (FBS) (Biowest Inc., Nuaille, France) and 3% L-glutamine at 37° C. in the presence of 5% CO2.
(§1) A stock solution of Nicaraven was prepared by dissolving Nicaraven in DMEM medium at a final concentration of 40 mM and sterilizing the solution through a filter. Olaparib (Adooq Bioscience, Irvine, CA, USA) was prepared as a stock solution of Olaparib in DMSO (FUJIFILM Wako Pure Chemical Corporation, Osaka, Japan) at a final concentration of 50 mM. […]
HeLa cell suspension adjusted to 5000 cells/ml was seeded in a 96 well plate at 100 μl/well, and the next day, siRNA was introduced, followed by addition of Olaparib or Nicaraven. One hundred twenty hours after gene introduction and Olaparib addition, Hela cells were replaced in a medium to which Presto Blue assay (Thermo-Fisher Scientific, Waltham, MA, USA) had been added so as to have a final concentration of 5%, followed by reaction in the presence of 5% CO2 at 37° C. for 1 hour, and then fluorescence was measured under conditions of an excitation wavelength of 520 nm and a fluorescence wavelength of 580 to 640 nm using GloMax (registered trademark) Explorer Multimode Microplate Reader (Promega, Madison, WI, USA). […]

In experiment [1] the test system is homologous recombination activity in HeLa cells. Briefly: Homologous recombination activity (ASHRA, knock-in efficiency by quantitative PCR; Example 2). As to conditions: control cells and cells with BRCA1 and RAD51 expression suppressed; 48 h culture with drug; FIG. 2B. An excerpt:
FIG. 5 illustrates an outline of a method for measuring homologous recombination repair (HR) activity (Assay for site-specific HR activity (ASHRA)) performed in Examples. In this method, a CRISPR/Cas9 system used for genome editing as a site-specific DNA cleaving enzyme is used to create a site-specific DNA double strand break in a target endogenous gene. Then, a fusion gene of a reporter and a target gene is generated by HR between a DNA fragment as a substrate for HR containing the reporter and the target endogenous gene. The production efficiency of the fusion gene of a reporter and a target gene is quantified as the HR repair activity of cell in the cell. For the method for detecting a fusion gene, flow cytometry, Western blotting, quantitative PCR, or the like can be used while changing the reporter. Step 1: Introduce Cas9/guide RNA expression vector and donor vector into cells. […] Step 4: Detecting knock-in efficiency of marker ((1) Western blotting, (2) flow cytometry, (3) quantitative PCR). […]
HeLa cells were seeded on a 3.5 cm dish, and the next day, siRNA was introduced. […] Genome quantitative PCR was performed using Go Taq qPCR master mix (Promega, Madison, WI, USA), measurement was done using CFX96 Touch Real-time PCR detection system (BioRad, Hercules, CA, USA), and knock-in efficiency was calculated by ΔΔCt method. […]

Experiment [2] relates to γ-H2AX, a marker of DNA double-strand break, in HeLa cells. Briefly: γ-H2AX intranuclear foci after X-ray irradiation (DNA double-strand break repair, immunostaining; Example 3). As to conditions: drug 30 min before 1.5 Gy X-ray, 24 h after irradiation, FIG. 3. The procedure:
After cell seeding, Nicaraven was added. After 30 minutes, the cells were irradiated with 1.5 Gy of X-ray, and after 2 hours and 24 hours, the cells were fixed and immunostained with an anti-γ-H2AX antibody.
Cells in which five or more γ-H2AX intranuclear foci were observed were counted, and the ratio was calculated and represented in a graph. Respective cells in which less than 5, 5 or more and less than 10, 10 or more and less than 20, and 20 or more γ-H2AX intranuclear foci were observed were counted, and the ratio was calculated and represented in a graph (FIG. 3D).

Another experiment concerns KYSE270 cells. Briefly: Cell viability of KYSE270 esophageal cancer cells with siRNA of control or RAD51 (Example 5). As to conditions: siRNA of RAD51, drug added 24 h later, 5 days culture, FIG. 6B. Here is the method: KYSE270 cells and KYSE30 cells (human esophageal squamous cell carcinoma cell line) were purchased from JCRB Cell Bank, National Institutes of Biomedical Innovation, Health and Nutrition (Osaka, Japan). KYSE270 cells and KYSE30 cells were cultured in a medium in which RPMI1640 and Ham's F12 medium (both of which were manufactured by FUJIFILM Wako Pure Chemical Corporation, Osaka, Japan) were mixed in equal amounts and 5% FBS was added at 37° C. in the presence of 5% CO2.
as §1
FIG. 6A. Protocol of an experiment in which cell viability under Olaparib, Nicaraven or Edaravone treatment on cells having reduced homologous recombination activity was analyzed. siRNA of control or RAD51 was introduced into esophageal cancer cells KYSE270 cells, and 24 hours later, either Olaparib or Nicaraven was added. After 5 days of culture, cell viability was measured.

Another experiment has as its system KYSE30 cells. In words: Cell viability of KYSE30 esophageal cancer cells with siRNA of RAD51 (Example 5). As to conditions: siRNA of RAD51, drug added 24 h later, compared with the control, FIG. 7.

Regarding `CC(CNC(=O)c1cccnc1)NC(=O)c1cccnc1` (centres unmarked) [Nicaraven], the “cell viability when expression of BRCA1 and RAD51 was suppressed” value in the experiment with HeLa cells is reported as “cell viability further decreased”. In addition, the homologous recombination activity entry in experiment [1] is given as “did not affect the homologous recombination ability”. For the same compound, in experiment [2] (RAD51 expression suppressed), the “DNA damage remaining (γ-H2AX intranuclear foci), RAD51-suppressed versus control” value was “DNA damage remained more remarkably in the state in which the expression of RAD51 was suppressed”. Further, in experiment [2] (control and RAD51-suppressed), the “DNA damage remaining (γ-H2AX intranuclear foci), control and RAD51-suppressed cells” value is “caused DNA damage to remain in both the control and the state in which the expression of RAD51 was suppressed”. For the same compound, the “cell viability when expression of RAD51 is suppressed” value in the experiment on KYSE270 cells is “cell viability further decreased”. Moreover, the “cell viability in cells in which expression of RAD51 was suppressed” value with KYSE30 cells is on record as “cell viability decreased in cells in which expression of RAD51 was suppressed, as compared with the control”.

On to `O=C(c1cc(Cc2n[nH]c(=O)c3ccccc23)ccc1F)N1CCN(C(=O)C2CC2)CC1` [Olaparib, reference compound], for which the “cell viability when expression of BRCA1 and RAD51 was suppressed” value in the experiment on HeLa cells was “decreased cell viability in cells in which expression of BRCA1 and RAD51 was suppressed, as compared with the control”. Moreover, in the experiment with KYSE270 cells, the “cell viability when expression of RAD51 is suppressed” value is “decreased cell viability in cells in which expression of RAD51 was suppressed, as compared with the control”.
